In data set [1] the test system is T1, whole cell HDAC activity (CEM cells).
T1 construct: other: intact CEM cells
The experiment in a line: Whole cell HDAC activity assay in intact CEM cells (MAL substrate). The class given is cell-based. The method, then: The fluorescent substrate MAL has been used in a novel assay established and validated by Dr. Joel for the determination of HDAC activity in intact cells.
1×10^6 CEM cells in 1 ml medium were exposed to inhibitors at 6 concentrations for 60 minutes, after which MAL at 20 μg/ml (5 μg/mL final concentration) was added for a further 30 minutes, all at 37° C. Cells were then rapidly washed at 4° C., lysed by sonication, the reaction stopped with acetonitrile, and MAL and the deacetylated product determined in the supernatant by rapid HPLC.
Chromatographic separation of MAL and ML was carried out using a 15 cm Apex ODS 5 μM column with acetonitrile/distilled water (40:60), 2% trifluoracetic acid (TFA) v/v mobile phase at a flow rate of 1.2 ml/minute.
The activity of each inhibitor was assessed at a minimum of 5 non-zero concentrations. MAL and ML peak heights were used to derive the percentage MAL in the mixture as the ration of MAL: MAL+ML.

Data set [2] concerns the target rat liver HDAC. The experiment in a line: HDAC activity assay with partially purified rat liver HDAC enzyme (MAL substrate). The class given is biochemical. The method, then: The activity of the compounds as inhibitors of histone deacetylase was investigated using a modified assay based on a rapid in vitro HDAC activity assay (based on the deacetylation of an Ω-acetylated lysine (MAL)) and described by Hoffman et al. in Nucl. Acids. […] The reaction was terminated with 100 μl acetonitrile, and MAL and the deacetylated produce (ML) were determined in the supernatant. […] MAL and ML peak heights were used to derive the percentage MAL in the mixture as the ration of MAL: MAL+ML.

Data set [3] deals with whole cell HDAC activity (CEM cells). Briefly: Whole cell HDAC assay modified for 24-hour incubation with CEM cells as indicator of in vitro compound stability.
Data set [4] concerns CEM cells. The experiment in a line: Percentage viability in CEM cells (3-day exposure). The class given is cell-based.
[5] abbreviates: intact CEM cells, inhibitor 60 minutes then MAL 30 minutes, read-out: HDAC inhibitory activity (IC50) μM CEM cells.
[6] abbreviates: rat liver HDAC preparation, 60 minutes at 37° C., read-out: HDAC inhibitory activity (IC50) μM Liver preparation.
Where [7] appears, read: CEM cells (Table 2), read-out: HDAC inhibitory activity CEM cells (IC50).
The mark [8] stands for this setting: Homo sapiens, CCRF-CEM, 72 h, Table 2, CEM cells, 3-day exposure, read-out: % Viability (IC50).
Setting [9] is: intact CEM cells, read-out: HDAC activity IC50, CEM cells.
The mark [10] stands for this setting: rat liver HDAC, read-out: HDAC activity IC50, rat liver HDAC.

Read-outs that look alike come from different tables or passages of the source.

Regarding `O=C(/C=C/C=C/CS(=O)(=O)c1ccccc1)NO` [CM4, 6-benzenesulfonyl-hexa-2,4-dienoic acid hydroxamide], the IC50 in data set [1] (setting [5]) was determined as 3.3 ± 1.3 µM; in data set [2] (setting [6]), 0.8 ± 0.3 µM.

As to `O=C(CCCCC[S+]([O-])c1ccc(Cl)cc1)NO` (stereo not drawn) [UCL 2007, 6-(4-Chloro-benzenesulfinyl)-hexanoic acid hydroxyamide], the IC50 in data set [1] (setting [7]) was found to be 1.28 µM; in data set [4] (setting [8]) it was 2.56 µM. In data set [3], the “decrease in HDAC inhibitory activity between 1 and 24 hours incubation” value is “no decrease in activity”.

On to “sodium phenyl-butyrohydroxamic acid [NaPBHA, reference compound]”, for which the IC50 stood at 158 ± 99 µM in data set [1] (setting [9]); 6.2 ± 2 µM in data set [2] (setting [10]); 138 ± 28 µM in data set [4] (CEM cells, 3-day exposure, read-out: IC50 values for percentage viability).

For the compound `CC(/C=C/C(=O)NO)=C\[C@@H](C)C(=O)c1ccc(N(C)C)cc1` [trichostatin, Trichostatin A, reference compound], the “decrease in HDAC inhibitory activity between 1 and 24 hours incubation” value in data set [3] is listed as “greater than 90%”. The IC50 in data set [4] (Homo sapiens, CCRF-CEM, 72 h, read-out: % viability (IC50) μM) was 0.082 ± 0.011 µM.

In the case of `CC=CC=CC(=O)NO` [hexa-2,4-dienic acid hydroxamide, reference compound], the IC50 in data set [1] (setting [9]) worked out at 47 ± 17 µM; in data set [2] (setting [10]), 0.8 ± 0.7 µM.

In the case of `O=C(/C=C/C=C/C[S+]([O-])c1ccc(Cl)cc1)NO` (stereo not drawn) [UCL 2002, 6-(4-Chlorobenzenesulfinyl)-hexa-2,4-dienoic acid hydroxyamide], the IC50 in data set [1] (setting [7]) was found to be 1.58 µM; in data set [1] (setting [5]), 1.2 ± 0.4 µM; in data set [2] (purified liver HDAC (Table 2), read-out: HDAC inhibitory activity Purified liver (IC50)), 0.31 µM; in data set [2] (setting [6]), 0.4 ± 0.1 µM; in data set [4] (setting [8]) it was 1.57 µM. Also, the “decrease in HDAC inhibitory activity between 1 and 24 hours incubation” value in data set [3] is “no decrease in activity”.

The values are drawn from US7683185B2, “Histone deacetylase inhibitors” (Queen Mary & Westfield College, priority 2002, dated 2010).
